“Also recorded” adds a separate entry of the source. Read-outs that look alike come from different tables or passages of the source. Square brackets hold non-standard residues; d marks the D form. Peptide text beside a SMILES is read from it. * marks the point of attachment. Dolaproine = CO[C@@H]([C@@H]1CCCN1)[C@@H](C)C(=O)O; X1 = O=C1CCC(N2C(=O)c3cccc(*)c3C2=O)C(=O)N1; Dil = CC[C@H](C)[C@H](NC)[C@@H](CC(=O)O)OC; X2 = C[C@@H](N*)[C@@H](O)c1ccccc1; NMeV = CN[C@H](C(=O)O)C(C)C; 12Ado = NCCCCCCCCCCCC(=O)O
Assays:
[1] = molecular target: T1, CRBN (Homo sapiens, UniProt Q96SW2); experiment: Competitive displacement assay for cellular CRBN engagement (rescue of dBET6-mediated BRD4BD2-eGFP degradation, mCherry reporter cells); type: cell-based
T1 construct: Quantitative assessment of intracellular CRBN engagement; endogenous in cells; host or cells: Flp293T-based BRD4BD2-GFP mCherry reporter cell line
Protocol: (§1) The human telomerase reverse transcriptase immortalized retinal pigment epithelium 1 (hTert-RPE1) cell line used in this study was grown at 37 °C with 5% CO2 in a humidified incubator. Cells were grown in Dulbecco’s modified medium (nutrient mixture F12, DMEM/F12) supplemented with 10% fetal bovine serum, and 1% (v:v) penicillin/streptomycin (pen/strep). The Flp293T-based BRD4BD2-GFP mCherry reporter cell line was grown in DMEM supplemented with 10% FBS. The synthesized small molecules and the parental microtubule poisons were dissolved in DMSO; 0.01% DMSO was used as vehicle control.
Supplementary Figure S3. MMAE-CRBN compounds engage CRBN in cells. Quantitative assess-ment of intracellular CRBN engagement using a BRD4BRD2-eGFP-mCherry reporter assay. CRBN engagement was assessed by monitoring rescue of dBET6-mediated degradation of BRD4BRD2-eGFP.
Cells stably expressing BRD4BRD2-eGFP and mCherry were treated with 100 nM of dBET6, a specific degrader of BRD4BRD2, and increasing concentrations of the candidate tubulin degraders. The eGFP and mCherry signals were quantified by laser scanning cytometry and the concentration of compound that rescued 50% of BRD4BRD2-eGFP fluorescence (EC50) was determined by nonlinear regression. Data from n=2 biological replicates. Error bars represent standard deviation of the mean. CPD – compound with […]
(also on this page, place not known: BRD4 BRD2-eGFP-mCherry (BJG-02-095)1 100Relative abundance 100Relative abundance 100Relative abundance) […]
Supplementary Figure S6. CA4-CRBN compounds engage CRBN in cells. Quantitative assessment of intracellular CRBN engagement using a BRD4BRD2-eGFP-mCherry reporter assay. CRBN engage-ment was assessed by monitoring rescue of dBET6-mediated degradation of BRD4BRD2-eGFP. Cells stably expressing BRD4BRD2-eGFP and mCherry were treated with 100 nM of dBET6, a specific degrad-er of BRD4BRD2, and increasing concentrations of the candidate tubulin degraders. The eGFP and […]
(also on this page, place not known: BRD4 BRD2-eGFP. (BJG-02-158)10 Relative abundance 100Relativeabundance) […]
3. Competitive displacement assay for cellular CRBN engagement
Cells stably expressing the BRD4BD2-GFP with mCherry reporter were seeded at 30-50% confluency in 384-well plates with 50 µL FluoroBrite DMEM media (Thermo Fisher Scientific A18967) containing 10% FBS per well a day before compound treatment. Compounds and 100 nM dBET6 were dispensed using a D300e Digital Dispenser (HP), normalized to 0.5% DMSO, and incubated with cells for 5 hours. The assay plate was imaged immediately using an Acumen High Content Imager (TTP Labtech) with 488 nm and 561 nm lasers in 2 µm x 1 µm grid per well format. The resulting images were analyzed using CellProfiler.
A series of image analysis steps (‘image analysis pipeline’) was constructed. First, the red and green channels were aligned and cropped to target the middle of each well (to avoid analysis of heavily clumped cells at the edges), and a background illumination function was calculated for both red and green channels of each well individually and subtracted to correct for illumination variations across the 384-well plate from various sources of error. An additional step was then applied to the green channel to suppress the analysis of large auto fluorescent artifacts and enhance the analysis of cell specific fluorescence by way of selecting for objects under a given size, 30 A.U., and with a given shape, speckles. mCherry-positive cells were then identified in the red channel filtering for objects between 8-60 pixels in diameter and using intensity to distinguish between clumped objects. The green channel was then segmented into GFP positive and negative areas and objects were labeled as GFP positive if at least 40% of it overlapped with a GFP positive area. The fraction of GFP-positive cells/mCherry-positive cells in each well was then calculated, and the green and red images were rescaled for visualization. The values for the concentrations that lead to a 50% […]

[2] = test system: α-tubulin (TUBA) and β-tubulin (TUBB) in hTert-RPE1 cells; experiment: Western blot of tubulin protein levels (tubulin degradation) in whole-cell extracts; type: cell-based, human; conditions: for degradation of tubulin (TUBA and TUBB protein levels, Western blot): normalized to ACTB and DMSO; for tubulin degradation in time-course experiment: five hours, data not shown
Protocol: as §1
Whole-cell extracts for immunoblot analysis were prepared by cell lysis in 2× SDS sample buffer composed of 50 mM Tris-HCl pH 6.8, 2% SDS, 10% glycerol, 143 mM β-mercaptoethanol, 12.5 mM EDTA, and 0.02% bromophenol blue in water. Samples were denatured at 100 °C for 10 min and then subjected to SDS-PAGE gel electrophoresis on 1.5 mm NuPAGE Novex 4–12% Bis-Tris Protein Gels (Thermo Fisher Scientific, Waltham, MA, USA), using the Mini Trans-Blot Cell system (BioRad, Hercules, CA, USA).
(§2) The Precision Plus Protein Dual Color Standard ladder was used for all immunoblots (BioRad, USA). Primary antibodies were diluted: 1:5000 beta-actin (Cell Signaling Technologies, Danvers, MA, USA, #4970), 1:15000 GAPDH (Cell Signaling Technologies, #2118), 1:10000 alpha-tubulin (DM1alpha, Millipore, Burlington, MA, USA, #05-829), and 1:5000 beta-tubulin (Cell Signaling Technologies, # 2128). Secondary antibodies were diluted: 1:15000 goat anti-mouse DyLight 680 conjugated (Thermo Fisher Scientific, #35518), 1:15000 goat anti-rabbit DyLight 800 conjugated (Thermo Fisher Scientific, #35571). The Odyssey Infra-Red Imaging System (LI-COR, Lincoln, NE, USA) equipped with the Image Studio software was used to image and analyze immunoblots. Data plotting and statistical analysis were carried out in Microsoft Excel (Redmond, WA, USA) and R (Vienna, Austria).
As positive controls, we prepared two of the literature molecules, T007-1 and a related T138067 (Figure 2A). We modified the originally reported synthesis of T007-1, instead using 2-chloro-5-nitrobenzoyl chloride, as the reported dicyclohexyl carbodiimide (DCC) coupling with 2-chloro-5-nitrobenzoic acid led to inseparable mixtures of mono- and diacylation (See Supplementary Material for full details). We treated human retinal pigment epithelium 1 (hTert-RPE1) cells, a widely used cell model, with T007-1 and T138067 degraders at a range of concentrations from 5 nM to 10 μM. Prolonged compound treatment was expected to cause activation of the spindle assembly checkpoint and an arrest in the mitotic stage of the cell cycle, which could have an effect on tubulin levels independently of tubulin degradation. To exclude this possibility, we used contact-inhibited quiescent cells (hTert-RPE1 cells stop proliferating at high growth density). In addition, to minimize the probability that some cells escape the cell cycle arrest and continue to proliferate, we opted for a short 5 h treatment of cells with the compounds, which was previously reported to be sufficient to degrade tubulin [35]. […] Therefore, as previously reported, this series of compounds led to degradation of tubulin and a global decrease of both soluble and polymerized tubulin levels.

[3] = test system: microtubule cytoskeleton in hTert-RPE1 cells; experiment: Biochemical partitioning of tubulin into soluble (S) and polymerized (P) fractions; type: cell-based, human; conditions: 1 μM, 5 h
Protocol: as §1
For tubulin partitioning into soluble and polymerized fractions, cells were grown in 12-well dishes at 70–80% confluence. Cells were gently washed with PBS pre-warmed to 37 °C. Soluble tubulin was extracted by incubating cells in 300 µL of tubulin extraction buffer containing 60 mM PIPES (pH 6.8), 25 mM HEPES (pH 7.2), 10 mM EGTA (pH 7–8), 2 mM MgCl2, 0.5% TritonX-100, 10 µM Paclitaxel (Sigma Aldrich, St. Louis, MO USA), and a protease inhibitor tablet (Roche, Branchburg, NJ, USA) for 2 min at room temperature. The extraction buffer with soluble protein was collected and mixed with 100 µL 4× SDS sample buffer. The remaining material containing polymerized tubulin was then collected by adding 400 µL 1× SDS sample buffer and scraping the dish. All samples were denatured at 100 °C for 10 min. Equal aliquots of samples were further concentrated two-fold by evaporation at 100 °C for 3–5 min immediately prior to SDS-PAGE gel electrophoresis.
as §2

[4] = IC50, intracellular CRBN engagement (rescue of 50% of BRD4BRD2-eGFP fluorescence), Supplementary Figures S3 and S6, 100 nM dBET6, n=2 biological replicates
[5] = hTert-RPE1 cells, 5 nM to 10 μM, 5 h

Structure (SMILES)	cell permeability as judged by the cellular CRBN engagement assay [1]	IC50 [1, 4]	degradation of tubulin (TUBA and TUBB protein levels, Western blot) [2, 5]	microtubule destabilization (soluble S vs polymerized P fraction of tubulin) [3]	also measured
CC[C@H](C)[C@@H]([C@@H](CC(=O)N1CCC[C@H]1[C@H](OC)[C@@H](C)C(=O)N[C@H](C)[C@@H](O)c1ccccc1)OC)N(C)C(=O)[C@@H](NC(=O)[C@H](C(C)C)N(C)CCOCCOCCOCCOCCNc1cccc2c1C(=O)N(C1CCC(=O)NC1=O)C2=O)C(C)C (stereo partly shown) [Compound 1]	cell-permeable	342 nM	no degradation	microtubule destabilization	IC50 ([1]; IC50, cellular CRBN engagement, 100 nM dBET6, 5 hours): 342 nM
CC[C@H](C)[C@@H]([C@@H](CC(=O)N1CCC[C@H]1[C@H](OC)[C@@H](C)C(=O)N[C@H](C)[C@@H](O)c1ccccc1)OC)N(C)C(=O)[C@@H](NC(=O)[C@H](C(C)C)N(C)C(=O)CCCCCCCCCCCNc1cccc2c1C(=O)N(C1CCC(=O)NC1=O)C2=O)C(C)C (stereo partly shown) [Compound 3] ({X1-12Ado}-[NMeV]V[Dil][Dolaproine]-X2)	–	–	no degradation	microtubule destabilization	CRBN engagement / CRBN binding in cells (in words) ([1]; 100 nM dBET6, 5 hours): very weak CRBN engagement; IC50 ([1]; 100 nM dBET6, 5 hours, read-out: IC50, cellular CRBN engagement): ~10000 nM
CC[C@H](C)[C@@H]([C@@H](CC(=O)N1CCC[C@H]1[C@H](OC)[C@@H](C)C(=O)N[C@H](C)[C@@H](O)c1ccccc1)OC)N(C)C(=O)[C@@H](NC(=O)[C@H](C(C)C)N(C)CCOCCOCCOCCNc1cccc2c1C(=O)N(C1CCC(=O)NC1=O)C2=O)C(C)C (stereo partly shown) [Compound 5]	–	467 nM	–	–	–
CC[C@H](C)[C@@H]([C@@H](CC(=O)N1CCC[C@H]1[C@H](OC)[C@@H](C)C(=O)N[C@H](C)[C@@H](O)c1ccccc1)OC)N(C)C(=O)[C@@H](NC(=O)[C@H](C(C)C)N(C)CCOCCOCCOCCOCCOCCNc1cccc2c1C(=O)N(C1CCC(=O)NC1=O)C2=O)C(C)C (stereo partly shown) [Compound 6]	–	440 nM	–	–	–
COc1ccc(/C=C\c2cc(OC)c(OC)c(OC)c2)cc1OCCOCCOCCOCCNc1cccc2c1C(=O)N(C1CCC(=O)NC1=O)C2=O (stereo not shown) [Compound 10]	cell permeable	1480 nM	–	–	–
COc1ccc(/C=C\c2cc(OC)c(OC)c(OC)c2)cc1OCCOCCOCCOCCOCCNc1cccc2c1C(=O)N(C1CCC(=O)NC1=O)C2=O (stereo not shown) [Compound 11]	cell permeable	572 nM	–	–	–
COc1ccc(/C=C\c2cc(OC)c(OC)c(OC)c2)cc1OCCOCCOCCOCCOCCOCCNc1cccc2c1C(=O)N(C1CCC(=O)NC1=O)C2=O (stereo not shown) [Compound 12]	cell permeable	655 nM	–	–	–
COc1ccc(/C=C\c2cc(OC)c(OC)c(OC)c2)cc1NCCOCCOCCOCCOCCNc1cccc2c1C(=O)N(C1CCC(=O)NC1=O)C2=O (stereo not shown) [Compound 13]	–	–	unsuccessful in degrading tubulin	no microtubule-destabilizing activity	CRBN engagement / CRBN binding in cells (in words) ([1]; 100 nM dBET6, 5 hours): efficient binding to CRBN; IC50 ([1]; Supplementary Figures S3 and S6, 100 nM dBET6, n=2 biological replicates, read-out: IC50, intracellular CRBN engagement (rescue of 50% of BRD4BRD2-eGFP fluorescence)): 3720 nM
O=C(Nc1ccnc(NCc2cccc(Oc3ccccc3)c2)c1)c1cc([N+](=O)[O-])ccc1Cl [Compound T007-1]	–	–	decrease in tubulin levels	decreased levels of both soluble (S) and polymerized (P) fractions of tubulin; also recorded: both the S and the P fraction of tubulin decrease	tubulin degradation in time-course experiment [2]: efficiently degrade tubulin; potency in decreasing tubulin levels, T007-1 compared with T138067 [2, 5]: significantly more potent
COc1ccc(NS(=O)(=O)c2c(F)c(F)c(F)c(F)c2F)cc1F [Compound T138067]	–	–	decrease in tubulin levels	both the S and the P fraction of tubulin decrease	tubulin degradation in time-course experiment [2]: efficiently degrade tubulin

Reference: article PMC7290497, “Tubulin Resists Degradation by Cereblon-Recruiting PROTACs” (Cells, 2020)
